Values after ≈ are worked out from the molar mass of the structure shown. Read-outs that look alike come from different tables or passages of the source.
Experiments:
[1] = tested on: Aspergillus fumigatus (ATCC 1022); assay: Antifungal bioassay (MIC/MFC); assay type: cell-based; conditions: ATCC1022, A.f. (A. fumigatus)
Outline: (§1)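 Duplicate runs per organism.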

[2] = tested on: Trichoderma viride (IAM 5061); assay: Antifungal bioassay (MIC/MFC); assay type: cell-based; conditions: T.v. (T. viride)
Outline: as §1

[3] = tested on: Penicillium funiculosum (ATCC 36839); assay: Antifungal bioassay (MIC/MFC); assay type: cell-based; conditions: Talaromyces funiculosus, ATCC36839; P.f. (P. funiculosum)
Outline: as §1

[4] = tested on: Aspergillus niger (ATCC 6275); assay: Antifungal bioassay (MIC/MFC); assay type: cell-based; conditions: ATCC6275, A.n. (A. niger)
Outline: as §1

[5] = tested on: Aspergillus versicolor (ATCC 11730); assay: Antifungal bioassay (MIC/MFC); assay type: cell-based; conditions: ATCC11730, A.v. (A. versicolor)
Outline: as §1

A. ochraceus = assay: Antifungal bioassay (MIC/MFC); assay type: cell-based; conditions: A.o. (A. ochraceus)
Outline: as §1

P. ochrochloron = assay: Antifungal bioassay (MIC/MFC); assay type: cell-based; conditions: Penicillium ochrochloron; for MFC: P.o. (P. ochrochloron); for MIC: P.o. (P. ochrochloron; text: P. ochramensis), read-out: MIC
Outline: as §1

[6] = tested on: Penicillium verrucosum var. cyclopium (food isolate); assay: Antifungal bioassay (MIC/MFC); assay type: cell-based
[7] = tested on: Listeria monocytogenes (NCTC 7973); assay: Antibacterial microdilution (MIC/MBC); assay type: cell-based; conditions: L.m. (L. monocytogenes)
Outline: (§2)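 Tested in a broth-type modified microdilution setup against each strain, giving paired MIC/MBC values.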

M. flavus = assay: Antibacterial microdilution (MIC/MBC); assay type: cell-based; conditions: Micrococcus flavus; M.f. (M. flavus)
Outline: as §2

[8] = tested on: Salmonella typhimurium (ATCC 13311); assay: Antibacterial microdilution (MIC/MBC); assay type: cell-based; conditions: S.t. (S. typhimurium)
Outline: as §2

P. aeruginosa = assay: Antibacterial microdilution (MIC/MBC); assay type: cell-based; conditions: P.a. (P. aeruginosa)
Outline: as §2

[9] = tested on: Bacillus cereus (clinical isolate); assay: Antibacterial microdilution (MIC/MBC); assay type: cell-based; conditions: B.c. (B. cereus)
Outline: as §2

[10] = tested on: Escherichia coli (ATCC 35210); assay: Antibacterial microdilution (MIC/MBC); assay type: cell-based; conditions: E. coli
Outline: as §2

[11] = tested on: Enterobacter cloacae (clinical isolate); assay: Antibacterial microdilution (MIC/MBC); assay type: cell-based; conditions: En.cl (En. cloacae)
Outline: as §2

[12] = tested on: Staphylococcus aureus (ATCC 6538); assay: Antibacterial microdilution (MIC/MBC); assay type: cell-based; conditions: Staphylococcus aureus, ATCC6538, S.a. (S. aureus); for MIC: read-out: MIC
Outline: as §2

in vitro = assay type: cell-based; conditions: human
Protocol: To evaluate cytotoxicity, compounds 1, 2, 8, and 11 were chosen to be tested in the human normal fetal lung fibroblast MRC-5 cell line within the following range of three concentrations for each substance: 1 × 10^−7 M (0.1 μM), 1 × 10^−6 Μ (1 μM), and 1 × 10^−5 M (10 μΜ). […] More specifically, under this exposure to compound 11, the cellular viability was measured to the level of 91.0%.
The normal human fetal lung fibroblast MRC-5 cell line was maintained and used in our laboratory (Dr. I.s.Vizirianakis, Laboratory of Pharmacology, School of Pharmacy, Aristotle University of Thessaloniki, Greece) (passage 15 < 40), as previously published. Cells were grown in culture under the following conditions: 37 °C, humidified atmosphere containing 5% v/v CO2, in DMEM (Dulbecco’s modified Eagle Medium) enriched with 10% FBS and 1% PS. The compounds tested were dissolved in DMSO and stored at 4 °C. […] After the incubation, the OD for each well was determined at 450 nm in a multifunction microplate reader. […] Statistical t-test and one-way analysis of variance (ANOVA) were performed via the use of the SPSS program and the significance level was determined at p < 0.05.

[13] = Trichoderma viride, IAM5061, read-out: MIC
[14] = Aspergillus ochraceus, read-out: MIC
[15] = Listeria monocytogenes, NCTC7973
[16] = Listeria monocytogenes, NCTC7973, read-out: MIC
[17] = Salmonella enterica, read-out: MIC
[18] = Pseudomonas aeruginosa, read-out: MIC
[19] = Escherichia coli, ATCC35210, read-out: MIC
[20] = Enterobacter cloacae, read-out: MIC

COC(=O)c1[nH]c2ccccc2c1/C=C1\SC(=S)N(CC(=O)O)C1=O [Compound 11, (Z)-2-(5-((2-(methoxycarbonyl)-1H-indol-3-yl)methylene)-4-oxo-2-thioxothiazolidin-3-yl)acetic acid]
MFC [1]: 120 ± 40 µg/mL (≈ 319 µM)
MIC [1]: 60 ± 6 µg/mL (≈ 159 µM)
MIC [2]: 8 ± 0.6 µg/mL (≈ 21.3 µM)
MFC ([2]; Trichoderma viride, IAM5061): 15 ± 3 µg/mL (≈ 39.8 µM)
MIC [2, 13]: 8 µg/mL (≈ 21.3 µM)
MFC [3]: 30 ± 10 µg/mL (≈ 79.7 µM)
MIC [3]: 15 ± 3 µg/mL (≈ 39.8 µM)
MFC [4]: 30 ± 10 µg/mL (≈ 79.7 µM)
MIC [4]: 15 ± 3 µg/mL (≈ 39.8 µM)
MFC [5]: 30 ± 10 µg/mL (≈ 79.7 µM)
MIC [5]: 15 ± 3 µg/mL (≈ 39.8 µM)
MIC (A. ochraceus): 8 ± 0.6 µg/mL (≈ 21.3 µM)
MFC (A. ochraceus; Aspergillus ochraceus): 15 ± 3 µg/mL (≈ 39.8 µM)
MIC (A. ochraceus; [14]): 8 µg/mL (≈ 21.3 µM)
MFC (P. ochrochloron): 30 ± 10 µg/mL (≈ 79.7 µM)
MIC (P. ochrochloron): 15 ± 3 µg/mL (≈ 39.8 µM)
MFC [6]: 30 ± 10 µg/mL (≈ 79.7 µM)
MIC [6]: 15 ± 3 µg/mL (≈ 39.8 µM)
melting point: 292 to 294 °C
MBC [7, 15]: 60 ± 6 µg/mL (≈ 159 µM)
MIC [7, 16]: 30 ± 10 µg/mL (≈ 79.7 µM)
MBC (M. flavus): 60 ± 6 µg/mL (≈ 159 µM)
MIC (M. flavus): 30 ± 10 µg/mL (≈ 79.7 µM)
MIC [8]: 15 ± 9 µg/mL (≈ 39.8 µM)
MBC ([8]; Salmonella enterica): 30 ± 10 µg/mL (≈ 79.7 µM)
MIC [8, 17]: 15 µg/mL (≈ 39.8 µM)
MIC (P. aeruginosa): 11 ± 10 µg/mL (≈ 29.2 µM)
MBC (P. aeruginosa; Pseudomonas aeruginosa): 30 ± 10 µg/mL (≈ 79.7 µM)
MIC (P. aeruginosa; [18]): 11 µg/mL (≈ 29.2 µM)
MIC [9]: 8 ± 0.6 µg/mL (≈ 21.3 µM)
MBC ([9]; Bacillus cereus): 15 ± 9 µg/mL (≈ 39.8 µM)
MIC ([9]; Bacillus cereus, read-out: MIC): 8 µg/mL (≈ 21.3 µM)
MIC [10]: 15 ± 9 µg/mL (≈ 39.8 µM)
MBC ([10]; Escherichia coli, ATCC35210): 30 ± 10 µg/mL (≈ 79.7 µM)
MIC [10, 19]: 15 µg/mL (≈ 39.8 µM)
MIC [11]: 11 ± 10 µg/mL (≈ 29.2 µM)
MBC ([11]; Enterobacter cloacae): 30 ± 10 µg/mL (≈ 79.7 µM)
MIC [11, 20]: 11 µg/mL (≈ 29.2 µM)
MBC [12]: 15 ± 9 µg/mL (≈ 39.8 µM)
MIC [12]: 8 ± 0.6 µg/mL (≈ 21.3 µM)
viability at 48 h, 1 µM (in vitro): 91%
viability at 48 h, 10 µM (in vitro): 91%

COC(=O)c1[nH]c2ccccc2c1/C=C1\SC(=S)N(C(C(=O)O)C(C)C)C1=O (stereo not shown) [Compound 12, (Z)-2-(5-((2-(methoxycarbonyl)-1H-indol-3-yl)methylene)-4-oxo-2-thioxothiazolidin-3-yl)-3-methylbutanoic acid]
MFC [1]: 120 ± 40 µg/mL (≈ 287 µM)
MIC [1]: 60 ± 6 µg/mL (≈ 143 µM)
MIC [2]: 8 ± 0.6 µg/mL (≈ 19.1 µM)
MFC ([2]; Trichoderma viride, IAM5061): 15 ± 3 µg/mL (≈ 35.8 µM)
MIC [2, 13]: 8 µg/mL (≈ 19.1 µM)
MFC [3]: 30 ± 10 µg/mL (≈ 71.7 µM)
MIC [3]: 15 ± 3 µg/mL (≈ 35.8 µM)
MFC [4]: 30 ± 10 µg/mL (≈ 71.7 µM)
MIC [4]: 22 ± 5 µg/mL (≈ 52.6 µM)
MFC [5]: 15 ± 3 µg/mL (≈ 35.8 µM)
MIC [5]: 8 ± 0.6 µg/mL (≈ 19.1 µM)
MFC (A. ochraceus; Aspergillus ochraceus): 15 ± 3 µg/mL (≈ 35.8 µM)
MIC (A. ochraceus; [14]): 8 ± 0.6 µg/mL (≈ 19.1 µM)
MFC (P. ochrochloron): 30 ± 10 µg/mL (≈ 71.7 µM)
MIC (P. ochrochloron): 15 ± 3 µg/mL (≈ 35.8 µM)
MFC [6]: 60 ± 6 µg/mL (≈ 143 µM)
MIC [6]: 30 ± 10 µg/mL (≈ 71.7 µM)
melting point: 256 to 258 °C
MIC [7]: 15 ± 1 µg/mL (≈ 35.8 µM)
MBC [7, 15]: 30 ± 10 µg/mL (≈ 71.7 µM)
MIC [7, 16]: 15 µg/mL (≈ 35.8 µM)
MBC (M. flavus): 60 ± 6 µg/mL (≈ 143 µM)
MIC (M. flavus): 30 ± 10 µg/mL (≈ 71.7 µM)
MBC ([8]; Salmonella enterica): 8 ± 9 µg/mL (≈ 19.1 µM)
MBC (P. aeruginosa; Pseudomonas aeruginosa): 30 ± 10 µg/mL (≈ 71.7 µM)
MIC (P. aeruginosa; [18]): 15 ± 9 µg/mL (≈ 35.8 µM)
MBC ([9]; Bacillus cereus): 60 ± 6 µg/mL (≈ 143 µM)
MIC ([9]; Bacillus cereus, read-out: MIC): 30 ± 10 µg/mL (≈ 71.7 µM)
MBC ([10]; Escherichia coli, ATCC35210): 30 ± 10 µg/mL (≈ 71.7 µM)
MBC ([11]; Enterobacter cloacae): 60 ± 6 µg/mL (≈ 143 µM)
MIC [11, 20]: 15 µg/mL (≈ 35.8 µM)
MBC [12]: 60 ± 6 µg/mL (≈ 143 µM)
MIC [12]: 30 ± 10 µg/mL (≈ 71.7 µM)

COC(=O)c1[nH]c2ccccc2c1/C=C1\SC(=S)N(c2ccc(O)cc2)C1=O [Compound 4, (Z)-methyl 3-((3-(4-hydroxyphenyl)-4-oxo-2-thioxothiazolidin-5-ylidene)methyl)-1H-indole-2-carboxylate]
MFC [1]: 120 ± 40 µg/mL (≈ 292 µM)
MIC [1]: 60 ± 6 µg/mL (≈ 146 µM)
MIC [2]: 8 ± 0.6 µg/mL (≈ 19.5 µM)
MFC ([2]; Trichoderma viride, IAM5061): 15 ± 3 µg/mL (≈ 36.5 µM)
MIC [2, 13]: 8 µg/mL (≈ 19.5 µM)
MFC [3]: 30 ± 10 µg/mL (≈ 73.1 µM)
MIC [3]: 15 ± 3 µg/mL (≈ 36.5 µM)
MFC [4]: 30 ± 10 µg/mL (≈ 73.1 µM)
MIC [4]: 15 ± 3 µg/mL (≈ 36.5 µM)
MFC [5]: 15 ± 3 µg/mL (≈ 36.5 µM)
MIC [5]: 8 ± 0.6 µg/mL (≈ 19.5 µM)
MFC (A. ochraceus; Aspergillus ochraceus): 15 ± 3 µg/mL (≈ 36.5 µM)
MIC (A. ochraceus; [14]): 8 ± 0.6 µg/mL (≈ 19.5 µM)
MFC (P. ochrochloron): 30 ± 10 µg/mL (≈ 73.1 µM)
MIC (P. ochrochloron): 15 ± 3 µg/mL (≈ 36.5 µM)
MFC [6]: 60 ± 6 µg/mL (≈ 146 µM)
MIC [6]: 30 ± 10 µg/mL (≈ 73.1 µM)
melting point: 282 to 284 °C
MBC [7, 15]: 60 ± 6 µg/mL (≈ 146 µM)
MIC [7, 16]: 45 ± 1 µg/mL (≈ 110 µM)
MBC (M. flavus): 60 ± 6 µg/mL (≈ 146 µM)
MIC (M. flavus): 45 ± 3 µg/mL (≈ 110 µM)
MBC ([8]; Salmonella enterica): 60 ± 6 µg/mL (≈ 146 µM)
MIC [8, 17]: 45 ± 3 µg/mL (≈ 110 µM)
MBC (P. aeruginosa; Pseudomonas aeruginosa): 60 ± 6 µg/mL (≈ 146 µM)
MIC (P. aeruginosa; [18]): 30 ± 10 µg/mL (≈ 73.1 µM)
MBC ([9]; Bacillus cereus): 60 ± 6 µg/mL (≈ 146 µM)
MIC ([9]; Bacillus cereus, read-out: MIC): 30 ± 10 µg/mL (≈ 73.1 µM)
MBC ([10]; Escherichia coli, ATCC35210): 60 ± 6 µg/mL (≈ 146 µM)
MIC [10, 19]: 45 ± 3 µg/mL (≈ 110 µM)
MBC ([11]; Enterobacter cloacae): 30 ± 10 µg/mL (≈ 73.1 µM)
MIC [11, 20]: 15 ± 9 µg/mL (≈ 36.5 µM)
MBC [12]: 60 ± 6 µg/mL (≈ 146 µM)
MIC [12]: 30 ± 10 µg/mL (≈ 73.1 µM)

— publication PMC9865890, “N-Derivatives of (Z)-Methyl 3-(4-Oxo-2-thioxothiazolidin-5-ylidene)methyl)-1H-indole-2-carboxylates as Antimicrobial Agents—In Silico and In Vitro Evaluation” (Pharmaceuticals, 2023)
